ChEMBL document CHEMBL3865793, “Non-specific binding sites help to explain mixed inhibition in mushroom tyrosinase activities” (Eur J Med Chem, 2016)
Activity calls are given as the source filed them. The rule behind the calls is not given here.

Columns and labels:
[1] = molecular target: T1, Mushroom tyrosinase (Agaricus bisporus) (UniProt O42713+Q00024+C7FF04+C7FF05); assay: Mixed type activation of cresolase activity of mushroom tyrosinase using 4-[(4-Methylphenyl) azo]-phenol as substrate by Dixon plot analysis
[2] = molecular target: T1, Mushroom tyrosinase (Agaricus bisporus); assay: Mixed type activation of cresolase activity of mushroom tyrosinase at 5 to 10.5 uM using 4-[(4-Methylphenyl) azo]-phenol as substrate by Lineweaver-Burk plot analysis
[3] = molecular target: T1, Mushroom tyrosinase (Agaricus bisporus); assay: Activation of cresolase activity of mushroom tyrosinase at <= 10 uM after 15 mins using 4-[(4-Methylphenyl) azo]-phenol as substrate relative to untreated control
[4] = molecular target: T1, Mushroom tyrosinase (Agaricus bisporus); assay: Inhibition of cresolase activity of mushroom tyrosinase at 0 to 10.5 uM using 23 to 50.05 uM of 4-[(4-Methylphenyl) azo]-phenol as substrate
[5] = molecular target: T1, Mushroom tyrosinase (Agaricus bisporus); assay: Activation of cresolase activity of mushroom tyrosinase assessed as activation constant after 15 mins using 4-[(4-Methylphenyl) azo]-phenol as substrate
[6] = molecular target: T1, Mushroom tyrosinase (Agaricus bisporus); assay: Inhibition of cresolase activity of mushroom tyrosinase at <5 uM using 4-[(4-Methylphenyl) azo]-phenol as substrate
[7] = molecular target: T1, Mushroom tyrosinase (Agaricus bisporus); assay: Activation of cresolase activity of mushroom tyrosinase assessed as inverse of activation constant after 15 mins using 4-[(4-Methylphenyl) azo]-phenol as substrate
[8] = molecular target: T1, Mushroom tyrosinase (Agaricus bisporus); assay: Activation of cresolase activity of mushroom tyrosinase at >5 uM after 15 mins using 4-[(4-Methylphenyl) azo]-phenol as substrate
[9] = molecular target: T1, Mushroom tyrosinase (Agaricus bisporus); assay: Inhibition of cresolase activity of mushroom tyrosinase at >150 uM using 4-[(4-Methylphenyl) azo]-phenol as substrate measured after 15 mins by spectrophotometric method
[10] = molecular target: T1, Mushroom tyrosinase (Agaricus bisporus); assay: Inhibition of cresolase activity of mushroom tyrosinase at 0 to 450 uM using 18 to 61 uM of 4-[(4-Methylphenyl) azo]-phenol as substrate
[11] = molecular target: Mushroom tyrosinase (Agaricus bisporus, UniProt O42713+Q00024+C7FF04+C7FF05); assay: Inhibition of cresolase activity of mushroom tyrosinase using 4-[(4-Methylphenyl) azo]-phenol as substrate measured after 15 mins by spectrophotometric method
[12] = molecular target: T1, Mushroom tyrosinase (Agaricus bisporus); assay: Activation of cresolase activity of mushroom tyrosinase at 50 to 150 uM using 4-[(4-Methylphenyl) azo]-phenol as substrate by Lineweaver-Burk plot analysis
[13] = molecular target: T1, Mushroom tyrosinase (Agaricus bisporus); assay: Activation of cresolase activity of mushroom tyrosinase at <= 150 uM after 15 mins using 4-[(4-Methylphenyl) azo]-phenol as substrate relative to untreated control
[14] = molecular target: T1, Mushroom tyrosinase (Agaricus bisporus); assay: Activation of cresolase activity of mushroom tyrosinase at <150 uM using 4-[(4-Methylphenyl) azo]-phenol as substrate measured after 15 mins by spectrophotometric method
[15] = molecular target: T1, Mushroom tyrosinase (Agaricus bisporus); assay: Activation of cresolase activity of mushroom tyrosinase assessed as dissociation constant for substrate after 15 mins using 4-[(4-Methylphenyl) azo]-phenol as substrate
[16] = molecular target: T1, Mushroom tyrosinase (Agaricus bisporus); assay: Activation of cresolase activity of mushroom tyrosinase at 18 uM using 4-[(4-Methylphenyl) azo]-phenol as substrate by Dixon plot analysis
[17] = test system: O=C(O)/C=C/c1ccccc1; assay: (§1) Activation of cresolase activity of mushroom tyrosinase assessed as Vmax after 15 mins using 4-[(4-Methylphenyl) azo]-phenol as substrate; conditions: Agaricus bisporus
[18] = test system: O=C(O)c1ccccc1C(=O)O; assay: as §1; conditions: Agaricus bisporus

Sequence of Mushroom tyrosinase (Agaricus bisporus) (from UniProt O42713+Q00024+C7FF04+C7FF05) (C7FF05 whole entry, looked up): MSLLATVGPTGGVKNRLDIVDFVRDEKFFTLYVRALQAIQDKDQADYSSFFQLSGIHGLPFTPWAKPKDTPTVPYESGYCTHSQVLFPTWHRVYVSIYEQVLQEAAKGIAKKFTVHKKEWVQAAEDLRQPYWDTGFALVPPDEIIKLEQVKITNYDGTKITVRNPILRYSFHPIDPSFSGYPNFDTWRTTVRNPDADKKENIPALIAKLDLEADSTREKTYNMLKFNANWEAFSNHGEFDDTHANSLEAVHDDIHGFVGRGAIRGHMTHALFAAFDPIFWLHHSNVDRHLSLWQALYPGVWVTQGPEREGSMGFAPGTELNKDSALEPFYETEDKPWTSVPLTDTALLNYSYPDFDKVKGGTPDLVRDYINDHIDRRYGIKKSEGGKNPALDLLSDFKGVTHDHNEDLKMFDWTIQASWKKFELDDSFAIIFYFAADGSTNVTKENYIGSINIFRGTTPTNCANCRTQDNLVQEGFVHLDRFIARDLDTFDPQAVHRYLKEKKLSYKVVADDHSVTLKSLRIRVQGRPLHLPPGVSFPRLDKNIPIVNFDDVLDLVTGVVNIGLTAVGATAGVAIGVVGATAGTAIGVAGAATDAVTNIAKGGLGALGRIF
Sequence of Mushroom tyrosinase (Agaricus bisporus) (from UniProt O42713+Q00024+C7FF04+C7FF05) (C7FF04 whole entry, looked up): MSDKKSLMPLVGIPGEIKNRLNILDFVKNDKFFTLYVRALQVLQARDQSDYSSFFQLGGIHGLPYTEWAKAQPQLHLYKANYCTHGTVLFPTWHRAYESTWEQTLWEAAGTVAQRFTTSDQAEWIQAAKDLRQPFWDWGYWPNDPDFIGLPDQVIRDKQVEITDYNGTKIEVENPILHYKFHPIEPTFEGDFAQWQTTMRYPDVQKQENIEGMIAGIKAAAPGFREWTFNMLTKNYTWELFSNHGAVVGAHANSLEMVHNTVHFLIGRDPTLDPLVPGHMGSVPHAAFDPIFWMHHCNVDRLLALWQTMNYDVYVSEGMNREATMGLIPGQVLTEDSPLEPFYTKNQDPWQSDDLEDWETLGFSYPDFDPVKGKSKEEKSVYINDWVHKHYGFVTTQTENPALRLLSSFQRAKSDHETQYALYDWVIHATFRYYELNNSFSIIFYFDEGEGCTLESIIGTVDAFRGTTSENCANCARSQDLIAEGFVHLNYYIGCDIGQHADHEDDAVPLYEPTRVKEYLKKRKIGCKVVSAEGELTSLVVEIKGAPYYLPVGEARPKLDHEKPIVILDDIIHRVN
Sequence of Mushroom tyrosinase (Agaricus bisporus) (from UniProt O42713+Q00024+C7FF04+C7FF05) (Q00024 whole entry, looked up): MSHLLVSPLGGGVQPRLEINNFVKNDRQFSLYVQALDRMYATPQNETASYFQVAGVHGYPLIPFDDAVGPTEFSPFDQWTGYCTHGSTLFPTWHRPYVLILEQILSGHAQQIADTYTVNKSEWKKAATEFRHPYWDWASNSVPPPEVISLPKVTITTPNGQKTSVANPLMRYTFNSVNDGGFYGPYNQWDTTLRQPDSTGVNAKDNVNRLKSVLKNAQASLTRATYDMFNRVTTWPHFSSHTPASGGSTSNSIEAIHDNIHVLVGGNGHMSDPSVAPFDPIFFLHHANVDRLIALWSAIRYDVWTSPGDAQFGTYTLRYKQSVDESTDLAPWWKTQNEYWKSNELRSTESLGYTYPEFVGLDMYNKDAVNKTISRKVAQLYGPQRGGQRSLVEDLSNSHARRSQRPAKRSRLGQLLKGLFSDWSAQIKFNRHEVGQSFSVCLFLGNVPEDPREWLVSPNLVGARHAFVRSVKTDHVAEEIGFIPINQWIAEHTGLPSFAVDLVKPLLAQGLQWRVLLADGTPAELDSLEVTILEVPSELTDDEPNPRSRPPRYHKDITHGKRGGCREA
Sequence of Mushroom tyrosinase (Agaricus bisporus) (from UniProt O42713+Q00024+C7FF04+C7FF05) (O42713 whole entry, looked up): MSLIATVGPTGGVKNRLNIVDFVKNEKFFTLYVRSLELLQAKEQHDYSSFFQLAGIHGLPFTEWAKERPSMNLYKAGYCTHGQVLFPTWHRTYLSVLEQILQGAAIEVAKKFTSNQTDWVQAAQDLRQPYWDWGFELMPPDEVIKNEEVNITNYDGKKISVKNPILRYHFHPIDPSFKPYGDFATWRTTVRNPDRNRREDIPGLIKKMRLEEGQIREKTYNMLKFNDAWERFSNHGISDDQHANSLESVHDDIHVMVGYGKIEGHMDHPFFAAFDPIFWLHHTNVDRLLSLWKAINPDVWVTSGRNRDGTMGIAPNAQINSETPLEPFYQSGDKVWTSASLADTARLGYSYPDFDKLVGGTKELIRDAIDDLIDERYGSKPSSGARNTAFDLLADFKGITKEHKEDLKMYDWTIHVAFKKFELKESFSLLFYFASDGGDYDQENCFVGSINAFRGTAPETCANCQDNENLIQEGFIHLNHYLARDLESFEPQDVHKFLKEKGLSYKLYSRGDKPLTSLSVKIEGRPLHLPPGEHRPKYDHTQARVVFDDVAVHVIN

Activity [1] | Activity [2] | fold change (FC) [3] | inhibition [4] | inhibition [6] | Activity [8] | Compound | KA [5] [µM] | Ka [7] [mM⁻¹] | inhibition [9] | inhibition [10] | IC50 [11] [µM] | Ki [11] [µM] | Activity [12] | Activity [13] [%] | Activity [14] | K [15] [µM] | Activity [16] | Vmax [17] [µM/min] | Vmax [18] [µM/min]
Active | Active | 2 | Active | Active | Active | O=C(O)/C=C/c1ccccc1 | 5.41 | 185 |  |  |  |  |  |  |  |  |  |  | 
 |  |  |  |  |  | O=C(O)c1ccccc1C(=O)O [PHTHALIC ACID] | 10.9 | 91.3 | Active | Active | 271.79 | 100 | Active | 11 to 23 | Active | 67.2 | Active |  | 
 |  |  |  |  |  | Mushroom tyrosinase (Agaricus bisporus) (from UniProt O42713+Q00024+C7FF04+C7FF05) |  |  |  |  |  |  |  |  |  |  |  | 7.9 | 14.5
